In PMC2649376 (Molecular membrane biology, 2006):
Changes are numbered by the printed parent chain. pEC50: −log10 of the molar value.

Legend:
[1] = target: F130N mutant 5-HT3 receptor; settings: F130N mutant receptor activated with acetylcholine; ref Steward et al. 2000; cited from earlier work
[2] = target: T1, N128E mutant 5-HT3 receptor (Mus musculus, UniProt P23979, N128E); assay: FlexStation membrane potential dye functional assay; type: cell-based
T1 sequence (P23979 24-483 isoform P23979-2 N128E limits assumed): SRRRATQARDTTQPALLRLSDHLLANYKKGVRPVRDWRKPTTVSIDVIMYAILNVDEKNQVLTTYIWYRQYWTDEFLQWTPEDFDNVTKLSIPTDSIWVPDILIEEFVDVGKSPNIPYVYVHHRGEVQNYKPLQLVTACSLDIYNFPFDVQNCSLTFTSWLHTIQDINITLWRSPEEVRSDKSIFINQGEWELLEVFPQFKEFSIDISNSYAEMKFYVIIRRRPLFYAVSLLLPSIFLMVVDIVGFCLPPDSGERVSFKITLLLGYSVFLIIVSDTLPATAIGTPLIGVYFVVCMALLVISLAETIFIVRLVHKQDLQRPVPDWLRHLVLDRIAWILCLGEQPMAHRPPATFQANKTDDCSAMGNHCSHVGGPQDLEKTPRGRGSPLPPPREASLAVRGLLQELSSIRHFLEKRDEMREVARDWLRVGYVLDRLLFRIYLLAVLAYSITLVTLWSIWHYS

[3] = target: T2, N128V mutant 5-HT3 receptor (Mus musculus, UniProt P23979, N128V); assay: as above; type: cell-based
T2 sequence (P23979 24-483 isoform P23979-2 N128V limits assumed): T1 sequence (P23979 24-483 isoform P23979-2 N128E limits assumed) with E105V

[4] = target: T3, F130A mutant 5-HT3 receptor (Mus musculus, UniProt P23979, F130A); assay: as above; type: cell-based
T3 sequence (P23979 24-483 isoform P23979-2 F130A limits assumed): T1 sequence (P23979 24-483 isoform P23979-2 N128E limits assumed) with E105N, F107A

[5] = target: T4, F130W mutant 5-HT3 receptor (Mus musculus, UniProt P23979, F130W); assay: as above; type: cell-based
T4 sequence (P23979 24-483 isoform P23979-2 F130W limits assumed): T1 sequence (P23979 24-483 isoform P23979-2 N128E limits assumed) with E105N, F107W

[6] = target: T5, F130Y mutant 5-HT3 receptor (Mus musculus, UniProt P23979, F130Y); assay: as above; type: cell-based; settings: HEK 293 cells
T5 sequence (P23979 24-483 isoform P23979-2 F130Y limits assumed): T1 sequence (P23979 24-483 isoform P23979-2 N128E limits assumed) with E105N, F107Y

[7] = target: T6, N128D mutant 5-HT3 receptor (Mus musculus, UniProt P23979, N128D); settings: HEK 293 cells
T6 sequence (P23979 24-483 isoform P23979-2 N128D limits assumed): T1 sequence (P23979 24-483 isoform P23979-2 N128E limits assumed) with E105D

[8] = target: T7, N128L mutant 5-HT3 receptor (Mus musculus, UniProt P23979, N128L); settings: HEK 293 cells
T7 sequence (P23979 24-483 isoform P23979-2 N128L limits assumed): T1 sequence (P23979 24-483 isoform P23979-2 N128E limits assumed) with E105L

[9] = target: T8, N128Q mutant 5-HT3 receptor (Mus musculus, UniProt P23979, N128Q); settings: HEK 293 cells
T8 sequence (P23979 24-483 isoform P23979-2 N128Q limits assumed): T1 sequence (P23979 24-483 isoform P23979-2 N128E limits assumed) with E105Q

[10] = target: T9, N128R mutant 5-HT3 receptor (Mus musculus, UniProt P23979, N128R)
T9 sequence (P23979 24-483 isoform P23979-2 N128R limits assumed): T1 sequence (P23979 24-483 isoform P23979-2 N128E limits assumed) with E105R

[11] = target: T5, F130Y mutant 5-HT3 receptor; settings: whole cell electrophysiology, ref Steward et al. 2000; cited from earlier work

CC(=O)OCC[N+](C)(C)C [acetylcholine]
pEC50 [1]: 3.59

NCCc1c[nH]c2ccc(O)cc12 [5-HT, 5-hydroxytryptamine]
change in EC50 versus wild type [2]: did not significantly affect the EC50 | Hill Coefficient ([2]; HEK 293 cells): 2.369±0.12 | change in EC50 versus wild type [3]: four-fold decrease in EC50 | Hill Coefficient ([3]; HEK 293 cells): 1.809±0.34 | change in EC50 versus wild type [4]: four-fold decrease in EC50 | Hill Coefficient ([4]; HEK 293 cells): 2.959±0.39 | change in EC50 versus wild type [5]: four-fold decrease in EC50 | Hill Coefficient ([5]; HEK 293 cells): 2.159±0.35 | Hill Coefficient [6]: 2.609±0.39 | Hill Coefficient [7]: 2.169±0.68 | Hill Coefficient [8]: 2.519±0.15 | Hill Coefficient [9]: 1.929±0.08 | factor of increase in EC50 versus wild type [10]: ~1500 | increase in EC50 versus wild type reported previously [11]: 8 fold
